# Test results as given in article PMC7031696 (Cell chemical biology, 2019).
# System: 3D7-MR4 trophozoite parasite-infected RBCs
# Assay: Metabolomic profiling (hydrophilic metabolite changes, UHPLC-MS)
# Format: cell-based, Plasmodium falciparum
structure (smiles),measurement,setting,value
CN(C)Cc1ccc(-c2cc3c(-c4ccc(CN(C)C)cc4)ccnc3[nH]2)cc1.O=C(O)C(F)(F)F [MMV022224],Log2(fold changes) adenosine,"metabolite adenosine, log2 fold change",0.0000
same,Log2(fold changes) alanine/sarcosine,"metabolite alanine/sarcosine, log2 fold change",0.0223
same,Log2(fold changes) anthranilate,"metabolite anthranilate, log2 fold change",0.0000
same,Log2(fold changes) arginine,"metabolite arginine, log2 fold change",0.0000
same,Log2(fold changes) asparagine,"metabolite asparagine, log2 fold change",0.2620
same,Log2(fold changes) aspartate,"metabolite aspartate, log2 fold change",-0.0524
same,Log2(fold changes) biotin,"metabolite biotin, log2 fold change",0.0000
same,Log2(fold changes) cCMP,"metabolite cCMP, log2 fold change",0.0000
same,Log2(fold changes) cGMP,"metabolite cGMP, log2 fold change",0.0000
same,Log2(fold changes) carnitine,"metabolite carnitine, log2 fold change",0.0000
same,Log2(fold changes) citrate/isocitrate,"metabolite citrate/isocitrate, log2 fold change",-0.2505
same,Log2(fold change) of coenzyme A,metabolite coenzyme A,-0.6694
same,Log2(fold change) of cyclic-AMP,metabolite cyclic-AMP,0.0000
same,Log2(fold change) of cytidine,metabolite cytidine,0.1493
same,Log2(fold change) of dAMP,metabolite dAMP,0.0000
same,Log2(fold change) of dATP,metabolite dATP,-0.1042
same,Log2(fold change) of dCDP,metabolite dCDP,-0.6243
same,Log2(fold change) of dCMP,metabolite dCMP,-0.5224
same,Log2(fold change) of dCTP,metabolite dCTP,-0.4073
same,Log2(fold change) of dGDP/ADP,metabolite dGDP/ADP,-0.4184
same,Log2(fold change) of dGMP/AMP,metabolite dGMP/AMP,-0.2434
same,Log2(fold change) of dGTP/ATP,metabolite dGTP/ATP,-0.1490
same,Log2(fold change) of dTDP,metabolite dTDP,0.0000
same,Log2(fold change) of dTMP,metabolite dTMP,-0.1539
same,Log2(fold change) of dTTP,metabolite dTTP,-0.2628
same,Log2(fold change) of dUMP,metabolite dUMP,0.0000
same,Log2(fold change) of dUTP,metabolite dUTP,0.0000
same,Log2(fold change) of deoxyguanosine,metabolite deoxyguanosine,0.0000
same,Log2(fold change) of deoxyinosine,metabolite deoxyinosine,0.0000
same,Log2(fold change) of deoxyribose-phosphate,metabolite deoxyribose-phosphate,0.0000
same,Log2(fold change) of deoxyuridine,metabolite deoxyuridine,0.0000
same,Log2(fold change) of dihydroorotate,metabolite dihydroorotate,0.4231
same,Log2(fold change) of folate,metabolite folate,0.2103
same,Log2(fold change) of fructose-1-6-bisphosphate,metabolite fructose-1-6-bisphosphate,-0.0559
same,Log2(fold change) of fructose-6-phosphate,metabolite fructose-6-phosphate,0.0000
same,Log2(fold change) of fumarate,metabolite fumarate,-0.4743
same,Log2(fold change) of glucono-lactone,metabolite glucono-lactone,0.0000
same,Log2(fold change) of glucose-1/6-phosphate,metabolite glucose-1/6-phosphate,0.0000
same,Log2(fold change) of glutamate,metabolite glutamate,-0.2593
same,Log2(fold change) of glutamine,metabolite glutamine,0.1154
same,Log2(fold change) of glutathione,metabolite glutathione,-0.5102
same,Log2(fold change) glutathione disulfide,metabolite glutathione disulfide,-0.1758
same,Log2(fold change) glycerate,metabolite glycerate,0.0000
same,Log2(fold change) guanine,metabolite guanine,-0.4489
same,Log2(fold change) guanosine,metabolite guanosine,0.0000
same,Log2(fold change) histidine,metabolite histidine,0.2818
same,Log2(fold change) homocysteic acid,metabolite homocysteic acid,0.0000
same,Log2(fold change) hydroxyphenylpyruvate,metabolite hydroxyphenylpyruvate,0.0000
same,Log2(fold change) hydroxyproline/Aminolevulinate,metabolite hydroxyproline/Aminolevulinate,-0.0239
same,Log2(fold change) hypoxanthine,metabolite hypoxanthine,0.0610
same,Log2(fold change) indole,metabolite indole,0.8345
same,Log2(fold change) inosine,metabolite inosine,-0.1646
same,Log2(fold change) isoleucine,metabolite isoleucine,-0.1407
same,Log2(fold change) lactate,metabolite lactate,-0.4343
same,Log2(fold change) leucine,metabolite leucine,0.0081
same,Log2(fold change) lysine,metabolite lysine,0.0000
same,Log2(fold change) malate,metabolite malate,-0.4038
same,Log2(fold change) maleic acid,metabolite maleic acid,-0.3811
same,Log2(fold change) methionine,metabolite methionine,0.2971
same,Log2(fold change) myo-inositol,metabolite myo-inositol,0.0000
same,Log2(fold change) nicotinamide mononucleotide,metabolite nicotinamide mononucleotide,0.0000
same,Log2(fold change) nicotinate,metabolite nicotinate,-0.4667
same,Log2(fold change) ornithine,metabolite ornithine,0.0000
same,Log2(fold change) orotate,metabolite orotate,-0.1913
same,Log2(fold change) orotidine-5'-phosphate,metabolite orotidine-5'-phosphate,-0.1124
same,Log2(fold change) oxaloacetate,metabolite oxaloacetate,0.0000
same,Log2(fold change) p-aminobenzoate,metabolite p-aminobenzoate,0.0000
same,Log2(fold change) p-hydroxybenzoate,metabolite p-hydroxybenzoate,0.0000
same,Log2(fold change) pantothenate,metabolite pantothenate,-0.1562
same,Log2(fold change) phenylalanine,metabolite phenylalanine,-0.0454
same,Log2(fold change) phenylpyruvate,metabolite phenylpyruvate,0.0000
same,Log2(fold change) phosphoenolpyruvate,metabolite phosphoenolpyruvate,-0.1663
same,Log2(fold change) prephenate,metabolite prephenate,0.0000
same,Log2(fold change) proline,metabolite proline,-0.1446
same,Log2(fold change) pyridoxine,metabolite pyridoxine,0.0000
same,Log2(fold change) pyruvate,metabolite pyruvate,-0.5314
same,Log2(fold change) riboflavin,metabolite riboflavin,0.4707
same,Log2(fold change) ribose,metabolite ribose,0.0000
same,Log2(fold change) ribose-phosphate,metabolite ribose-phosphate,0.0000
same,Log2(fold change) ribulose-5-phosphate,metabolite ribulose-5-phosphate,-0.0752
same,Log2(fold change) serine,metabolite serine,0.2570
same,Log2(fold change) sn-glycerol-3-phosphate,metabolite sn-glycerol-3-phosphate,0.2730
same,Log2(fold change) succinate/Methylmalonic acid,metabolite succinate/Methylmalonic acid,-0.4610
same,Log2(fold change) succinyl-CoA/methylmalonyl-CoA,metabolite succinyl-CoA/methylmalonyl-CoA,-0.1003
same,Log2(fold change) taurine,metabolite taurine,0.0000
same,Log2(fold change) thiamine,metabolite thiamine,0.0000
same,Log2(fold change) threonine/homoserine,metabolite threonine/homoserine,0.2231
same,Log2(fold change) thymidine,metabolite thymidine,0.0000
same,Log2(fold changes) thymine,"metabolite thymine, log2 fold change",0.0000
same,Log2(fold changes) trehalose-6-Phosphate,"metabolite trehalose-6-Phosphate, log2 fold change",0.0000
same,Log2(fold changes) tryptophan,"metabolite tryptophan, log2 fold change",0.5432
same,Log2(fold changes) tyrosine,"metabolite tyrosine, log2 fold change",0.1420
same,Log2(fold changes) uridine,"metabolite uridine, log2 fold change",0.0000
same,Log2(fold changes) valine,"metabolite valine, log2 fold change",-0.1357
same,Log2(fold changes) xanthine,"metabolite xanthine, log2 fold change",0.0000
same,Log2(fold changes) xanthosine-5-phosphate,"metabolite xanthosine-5-phosphate, log2 fold change",-0.1792
same,Log2(fold changes) xanthosine,"metabolite xanthosine, log2 fold change",-1.8994
same,Log2(fold changes) xylose,"metabolite xylose, log2 fold change",0.0000
